The text below walks through data of patent US20100069341A1, “TETRAHYDRO-PYRANOPYRAZOLE CANNABINOID MODULATORS” (priority 2005, published 2010).

Like-named read-outs stand apart in the source and are kept apart here.

The term inhibition denotes the change of the read-out against control, counted positive when it falls. Usually IC50 stands for the point on the concentration scale where inhibition reaches its midpoint. Lower therefore signals greater potency in that assay.

The target in experiment [1] is T1, Cannabinoid CB1 Receptor (Homo sapiens, UniProt P21554).
T1 construct: expressed in transfected cells; semi-purified membrane pellet
T1 sequence (P21554 whole entry): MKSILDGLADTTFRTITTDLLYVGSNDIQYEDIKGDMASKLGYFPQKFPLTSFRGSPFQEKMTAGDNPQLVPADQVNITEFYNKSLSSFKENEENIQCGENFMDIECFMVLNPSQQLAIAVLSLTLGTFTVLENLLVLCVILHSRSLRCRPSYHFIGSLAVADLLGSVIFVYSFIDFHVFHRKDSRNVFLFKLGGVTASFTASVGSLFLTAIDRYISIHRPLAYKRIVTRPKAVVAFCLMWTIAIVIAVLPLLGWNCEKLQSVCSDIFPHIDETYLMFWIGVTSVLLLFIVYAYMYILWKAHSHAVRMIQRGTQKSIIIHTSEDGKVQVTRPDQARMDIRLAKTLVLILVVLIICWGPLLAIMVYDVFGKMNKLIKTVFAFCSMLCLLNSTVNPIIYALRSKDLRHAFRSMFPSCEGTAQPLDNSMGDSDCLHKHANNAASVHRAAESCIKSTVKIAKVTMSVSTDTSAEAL
Briefly: Binding assay, cannabinoid CB1 receptor ([3H]-CP-55,940 displacement, SK-N-MC cell membranes). Conditions: for inhibition at 0.2 µM: read-out: Cannabinoid CB1 Receptor Binding, percent inhibition. Here is the method:
(§1) Binding Assay for CB1 or CB2 Agonists or Inverse Agonists
(§2) The human CB1 and CB2 receptors were stably expressed in SK-N-MC cells transfected with pcDNA3 CB-1 (human) or pcDNA3 CB-2 (human). The cells were grown in T-180 cell culture flasks under standard cell culture conditions at 37° C. in a 5% CO2 atmosphere. The cells were harvested by trysinization and homogenized in a homogenization buffer (10 mM Tris, 0.2 mM MgCl2, 5 mM KCl, with protease inhibitors aprotinin, leupeptin, pepstatin A and bacitracin) and centrifuged (2000 g). The supernatant was then centrifuged in 2M sucrose (31,300 g) to produce a semi-purified membrane pellet. The pellet was resuspended in homogenization and store at −80° C.
On the day of the assay, the pellet was thawed on ice and diluted in assay buffer (50 mM Tris-HCl, 5 mM MgCl2, 2.5 mM EDTA, 0.5 mg/mL fatty acid free bovine serum albumin, pH 7.5). […] The plate was covered and incubated for 90 minutes at 30° C. The contents were then aspirated onto a Packard Unifilter GF/C filter bottom plate prewet with 0.5% polyethyleneimine. The wells of the polypropylene plate were rinsed and aspirated seven times with a 0.9% saline-0.5% Tween 20 solution. The Unifilter plate was dried, a scintillation cocktail was added to each well and the counts representing binding were quantitated in a TopCount scintillation counter.
For compounds tested, an IC50 binding value was obtained from percent inhibition studies in which various test concentrations were used. The binding value (in μM) was calculated by linear regression.

Experiment [2] addresses T2, Cannabinoid CB2 Receptor (Homo sapiens, UniProt P34972).
T2 construct: expressed in transfected cells; semi-purified membrane pellet
Briefly: Binding assay, cannabinoid CB2 receptor ([3H]-CP-55,940 displacement, SK-N-MC cell membranes). The following applies: test concentration of 0.2 μM; human CB2 in SK-N-MC membranes; read-out: Cannabinoid CB2 Receptor Binding, percent inhibition. Here is the method: as §1, §2
On the day of the assay, the pellet was thawed on ice and diluted in assay buffer (50 mM Tris-HCl, 5 mM MgCl2, 2.5 mM EDTA, 0.5 mg/mL fatty acid free bovine serum albumin, pH 7.5). The diluted membrane was added with buffer, test compound or standard and the radioligand [H]^3+-CP-55,940 (0.2 nM) to the wells of a 96-well polypropylene plate. Non-specific binding was measured in wells containing 10 uM WIN 55,212. The plate was covered and incubated for 90 minutes at 30° C. The contents were then aspirated onto a Packard Unifilter GF/C filter bottom plate prewet with 0.5% polyethyleneimine. The wells of the polypropylene plate were rinsed and aspirated seven times with a 0.9% saline-0.5% Tween 20 solution. The Unifilter plate was dried, a scintillation cocktail was added to each well and the counts representing binding were quantitated in a TopCount scintillation counter.
For compounds tested, an IC50 binding value was obtained from percent inhibition studies in which various test concentrations were used. The binding value (in μM) was calculated by linear regression. For compounds without an IC50 binding value, the percent inhibition (in %) was obtained at a test concentration of 0.2 μM.

Setting [3] is: test concentration of 0.2 μM, human CB1 in SK-N-MC membranes.

T2 sequence (P34972 whole entry): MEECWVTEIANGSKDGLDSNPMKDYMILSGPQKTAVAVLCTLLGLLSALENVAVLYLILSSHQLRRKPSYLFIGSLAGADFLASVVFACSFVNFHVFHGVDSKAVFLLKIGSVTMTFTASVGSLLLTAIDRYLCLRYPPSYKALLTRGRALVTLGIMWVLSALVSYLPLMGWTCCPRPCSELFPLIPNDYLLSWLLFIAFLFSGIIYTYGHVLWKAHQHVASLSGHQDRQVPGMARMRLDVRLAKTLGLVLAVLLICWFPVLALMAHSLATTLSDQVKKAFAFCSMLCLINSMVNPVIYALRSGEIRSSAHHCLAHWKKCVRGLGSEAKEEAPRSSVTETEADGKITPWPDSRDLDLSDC

For the molecule `C[C@H](NC(=O)c1nn(-c2ccc(Cl)cc2Cl)c2c1COC/C2=C\c1ccsc1)C1CCCCC1` [Cpd 41, (7Z)-1-(2,4-dichloro-phenyl)-7-thiophen-3-ylmethylene-1,4,6,7-tetrahydro-pyrano[4,3-c]pyrazole-3-carboxylic acid [(S)-1-cyclohexyl-ethyl]-amide], the results for the inhibition at 0.2 µM in experiment [1] and in experiment [2] were 56% and 21%, respectively.

With `C[C@H](NC(=O)c1nn(-c2ccc(Cl)cc2Cl)c2c1COC/C2=C\c1ccsc1)c1ccccc1` [Cpd 42, (7Z)-1-(2,4-dichloro-phenyl)-7-thiophen-3-ylmethylene-1,4,6,7-tetrahydro-pyrano[4,3-c]pyrazole-3-carboxylic acid [(S)-1-phenyl-ethyl]-amide], the inhibition at 0.2 µM in experiment [1] came to 57%; in experiment [2], 16%.

Consider `O=C(NN1CCCCC1)c1nn(-c2ccc(Cl)cc2Cl)c2c1COC/C2=C\c1ccsc1` [Cpd 43, (7Z)-1-(2,4-dichloro-phenyl)-7-thiophen-3-ylmethylene-1,4,6,7-tetrahydro-pyrano[4,3-c]pyrazole-3-carboxylic acid piperidin-1-ylamide], for which the IC50 in experiment [1] was 30 nM. Further, the inhibition at 0.2 µM in experiment [1] (setting [3]) amounted to 83%; in experiment [2] it was 19%.

For the molecule `O=C(NN1CCCCCC1)c1nn(-c2ccc(Cl)cc2Cl)c2c1COC/C2=C\c1ccsc1` [Cpd 44, (7Z)-1-(2,4-dichloro-phenyl)-7-thiophen-3-ylmethylene-1,4,6,7-tetrahydro-pyrano[4,3-c]pyrazole-3-carboxylic acid azepan-1-ylamide], the IC50 in experiment [1] is 20 nM. Besides, the inhibition at 0.2 µM in experiment [1] (setting [3]) stood at 86%; in experiment [2], 16%.

As for `O=C(NN1CC2CCCC2C1)c1nn(-c2ccc(Cl)cc2Cl)c2c1COC/C2=C\c1ccsc1` (stereo not drawn) [Cpd 45, (7Z)-1-(2,4-dichloro-phenyl)-7-thiophen-3-ylmethylene-1,4,6,7-tetrahydro-pyrano[4,3-c]pyrazole-3-carboxylic acid (hexahydro-cyclopenta[c]pyrrol-2-yl)-amide], in experiment [1], the IC50 amounted to 20 nM. Further, the inhibition at 0.2 µM turned out to be 84% in experiment [1] (setting [3]) and 19% in experiment [2].

Take `CC1CCCC(C)N1NC(=O)c1nn(-c2ccc(Cl)cc2Cl)c2c1COC/C2=C\c1ccsc1` (stereo not drawn) [Cpd 46, (7Z)-1-(2,4-dichloro-phenyl)-7-thiophen-3-ylmethylene-1,4,6,7-tetrahydro-pyrano[4,3-c]pyrazole-3-carboxylic acid (2,6-dimethyl-piperidin-1-yl)-amide]: the inhibition at 0.2 µM was 68% in experiment [1] (setting [3]) and 20% in experiment [2].

In experiment [1], `O=C(NN1CCCC1)c1nn(-c2ccc(Cl)cc2Cl)c2c1COC/C2=C\c1ccsc1` [Cpd 47, (7Z)-1-(2,4-dichloro-phenyl)-7-thiophen-3-ylmethylene-1,4,6,7-tetrahydro-pyrano[4,3-c]pyrazole-3-carboxylic acid pyrrolidin-1-ylamide] yielded an IC50 of 30 nM. The results for the inhibition at 0.2 µM in experiment [1] (setting [3]) and in experiment [2] were 70% and 9%, respectively.

Regarding `O=C(N[C@H](CO)c1ccccc1)c1nn(-c2ccc(Cl)cc2Cl)c2c1COC/C2=C\c1ccsc1` [Cpd 48, (7Z)-1-(2,4-dichloro-phenyl)-7-thiophen-3-ylmethylene-1,4,6,7-tetrahydro-pyrano[4,3-c]pyrazole-3-carboxylic acid [(1S)-2-hydroxy-1-phenyl-ethyl]-amide], the figures for the inhibition at 0.2 µM in experiment [1] (setting [3]) and in experiment [2] were 36% and 17%, respectively.

With `C[C@@H](NC(=O)c1nn(-c2ccc(Cl)cc2Cl)c2c1COC/C2=C\c1ccc(Cl)s1)c1ccccc1` [Cpd 49, (7Z)-7-(5-chloro-thiophen-2-ylmethylene)-1-(2,4-dichloro-phenyl)-1,4,6,7-tetrahydro-pyrano[4,3-c]pyrazole-3-carboxylic acid [(R)-1-phenyl-ethyl]-amide], the IC50 in experiment [1] was determined as 20 nM. The inhibition at 0.2 µM stood at 84% in experiment [1] (setting [3]) and 10% in experiment [2].

Turning to `C[C@H](NC(=O)c1nn(-c2ccc(Cl)cc2Cl)c2c1COC/C2=C\c1ccc(Cl)s1)C1CCCCC1` [Cpd 50, (7Z)-7-(5-chloro-thiophen-2-ylmethylene)-1-(2,4-dichloro-phenyl)-1,4,6,7-tetrahydro-pyrano[4,3-c]pyrazole-3-carboxylic acid [(S)-1-cyclohexyl-ethyl]-amide], the inhibition at 0.2 µM in experiment [1] (setting [3]) was found to be 34%; in experiment [2], 2%.

For the molecule `C[C@H](NC(=O)c1nn(-c2ccc(Cl)cc2Cl)c2c1COC/C2=C\c1ccc(Cl)s1)c1ccccc1` [Cpd 51, (7Z)-7-(5-chloro-thiophen-2-ylmethylene)-1-(2,4-dichloro-phenyl)-1,4,6,7-tetrahydro-pyrano[4,3-c]pyrazole-3-carboxylic acid [(S)-1-phenyl-ethyl]-amide], the inhibition at 0.2 µM in experiment [1] (setting [3]) was determined as 48%; in experiment [2], 15%.

In experiment [1], `C[C@@H](NC(=O)c1nn(-c2ccc(Cl)cc2Cl)c2c1COC/C2=C\c1ccc(Cl)s1)C1CCCCC1` [Cpd 52, (7Z)-7-(5-chloro-thiophen-2-ylmethylene)-1-(2,4-dichloro-phenyl)-1,4,6,7-tetrahydro-pyrano[4,3-c]pyrazole-3-carboxylic acid [(R)-1-cyclohexyl-ethyl]-amide] yielded an IC50 of 9 nM. Moreover, the inhibition at 0.2 µM was found to be 88% in experiment [1] (setting [3]) and 21% in experiment [2].

For the molecule `O=C(NN1CCCCCC1)c1nn(-c2ccc(Cl)cc2Cl)c2c1COC/C2=C\c1ccc(Cl)s1` [Cpd 53, (7Z)-7-(5-chloro-thiophen-2-ylmethylene)-1-(2,4-dichloro-phenyl)-1,4,6,7-tetrahydro-pyrano[4,3-c]pyrazole-3-carboxylic acid azepan-1-ylamide], in experiment [1], the IC50 is 10 nM. Besides, the inhibition at 0.2 µM in experiment [1] (setting [3]) was 83%; in experiment [2], 10%.

In experiment [1], `O=C(NN1CCCCC1)c1nn(-c2ccc(Cl)cc2Cl)c2c1COC/C2=C\c1ccc(Cl)s1` [Cpd 54, (7Z)-7-(5-chloro-thiophen-2-ylmethylene)-1-(2,4-dichloro-phenyl)-1,4,6,7-tetrahydro-pyrano[4,3-c]pyrazole-3-carboxylic acid piperidin-1-ylamide] yielded an IC50 of 20 nM. The inhibition at 0.2 µM stood at 78% in experiment [1] (setting [3]) and 13% in experiment [2].

As to `CC1CCCC(C)N1NC(=O)c1nn(-c2ccc(Cl)cc2Cl)c2c1COC/C2=C\c1ccc(Cl)s1` (stereo not drawn) [Cpd 55, (7Z)-7-(5-chloro-thiophen-2-ylmethylene)-1-(2,4-dichloro-phenyl)-1,4,6,7-tetrahydro-pyrano[4,3-c]pyrazole-3-carboxylic acid (2,6-dimethyl-piperidin-1-yl)-amide], the figures for the inhibition at 0.2 µM in experiment [1] (setting [3]) and in experiment [2] were 65% and 11%, respectively.

The molecule `O=C(NN1CC2CCCC2C1)c1nn(-c2ccc(Cl)cc2Cl)c2c1COC/C2=C\c1ccc(Cl)s1` (stereo not drawn) [Cpd 56, (7Z)-7-(5-chloro-thiophen-2-ylmethylene)-1-(2,4-dichloro-phenyl)-1,4,6,7-tetrahydro-pyrano[4,3-c]pyrazole-3-carboxylic acid (hexahydro-cyclopenta[c]pyrrol-2-yl)-amide] registered an IC50 in experiment [1] of 40 nM. The inhibition at 0.2 µM in experiment [1] (setting [3]) worked out at 74%; in experiment [2], 0%.

Turning to `O=C(NN1CCCC1)c1nn(-c2ccc(Cl)cc2Cl)c2c1COC/C2=C\c1ccc(Cl)s1` [Cpd 57, (7Z)-7-(5-chloro-thiophen-2-ylmethylene)-1-(2,4-dichloro-phenyl)-1,4,6,7-tetrahydro-pyrano[4,3-c]pyrazole-3-carboxylic acid pyrrolidin-1-ylamide], the values for the inhibition at 0.2 µM in experiment [1] (setting [3]) and in experiment [2] were 67% and 15%, respectively.

Consider `O=C(N[C@H](CO)c1ccccc1)c1nn(-c2ccc(Cl)cc2Cl)c2c1COC/C2=C\c1ccc(Cl)s1` [Cpd 58, (7Z)-7-(5-chloro-thiophen-2-ylmethylene)-1-(2,4-dichloro-phenyl)-1,4,6,7-tetrahydro-pyrano[4,3-c]pyrazole-3-carboxylic acid [(S)-2-hydroxy-1-phenyl-ethyl]-amide], for which the results for the inhibition at 0.2 µM in experiment [1] (setting [3]) and in experiment [2] were 59% and 0%, respectively.
